Laboratory results reported in patent publication US11053234B2 (GlaxoSmithKline Intellectual Property Development Limited, priority 2016, dated 2021).

Legend:
normal mice = assay: in vivo assay for muscle function following limb muscle injury; details: FIG. 1
[1] = biological target: T1, haematopoietic prostaglandin D synthase (H-PGDS) (Homo sapiens, UniProt O60760); assay: H-PGDS RapidFire high throughput mass spectrometry assay (conversion of PGH2 to PGD2); format: biochemical; details: 10 nM H-PGDS, PGH2 formed in situ by COX-2 from arachidonic acid; read-out: Potency Range (mean pIC50) (converted)
T1 construct: Full length human H-PGDS cDNA (Invitrogen Ultimate ORF 10H13026) was amplified by PCR; 6-His (N); TEV protease cleavage site (N); made in house; host or cells: E. coli BL21 (DE3*), vector pET22b+
Method in brief: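 RapidFire SPE–MS read-out calculated percent conversion from relative PGD2 and PGF2α (substrate surrogate) levels. Recombinant full-length human H-PGDS (His-tag, E. coli) turned over PGH2, produced in situ at ˜10 μM by human COX-2 (FLAG-tag, Sf9 cells) acting on arachidonic acid.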

male C57BI/6N mice = assay: In vivo assay for functional response to muscle injury (eccentric contraction-induced muscle fatigue); set-up: species or system mouse; details: vs vehicle, FIG. 1
Text: In Vivo Assays for Functional Response to Muscle Injury
Under anesthesia, the right hind limb of a mouse is restrained at the knee and the foot attached to a motorized footplate/force transducer. Needle electrodes are inserted into the upper limb, either side of the sciatic nerve and a current sufficient to elicit a maximal muscle contraction is applied. Muscle tension is produced by moving the footplate to lengthen the plantarflexor muscles while the limb is under maximal stimulation. This is repeated 60 times to fatigue the muscles of the lower limb. Anesthesia, limb immobilization and limb stimulation are then repeated at regular intervals to measure maximal isometric force in the recovering limb. 7 to 9 animals are tested for each test condition.

T1 sequence (O60760 whole entry): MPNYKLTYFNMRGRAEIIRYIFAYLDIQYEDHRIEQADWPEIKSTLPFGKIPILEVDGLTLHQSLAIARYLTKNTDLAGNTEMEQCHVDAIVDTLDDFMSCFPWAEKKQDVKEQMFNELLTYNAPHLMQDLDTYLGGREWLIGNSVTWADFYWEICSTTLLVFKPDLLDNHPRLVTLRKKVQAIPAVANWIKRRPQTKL

Structure (SMILES) | IC50 [1] | also measured
CC(C)(O)[C@H]1CC[C@H](NC(=O)N2CC(Oc3cc(F)cc4scnc34)C2)CC1 [Example 141, 3-((6-Fluorobenzo[d]thiazol-4-yl)oxy)-N-((trans)-4-(2-hydroxypropan-2-yl)cyclohexyl)azetidine-1-carboxamide] | 10 to 79.4 nM | functional repair dose response curves of H-PGDS inhibition following limb muscle injury (normal mice): protection and acceleration of functional repair; kinetics of recovery of maximal isometric force after eccentric contraction injury (male C57BI/6N mice; PO 3, 10 and 30 mg/kg BID beginning 10 min prior to eccentric contraction challenge): acceleration in the kinetics of recovery; initial magnitude of the injury, isometric limb force 24-hours following protocol initiation (male C57BI/6N mice; PO 3, 10 and 30 mg/kg BID, 24 hours): reduced the initial magnitude of the injury
CC(C)c1nnc(NC(=O)N2CC(Oc3cccc4scnc34)C2)o1 [Example 328, 3-(Benzo[d]thiazol-4-yloxy)-N-(5-isopropyl-1,3,4-oxadiazol-2-yl)azetidine-1-carboxamide] | 100 to 1000 nM | –
Cc1n[nH]c(NC(=O)N2CC(Oc3cccc4scnc34)C2)c1C#N [Example 329, 3-(Benzo[d]thiazol-4-yloxy)-N-(4-cyano-3-methyl-1H-pyrazol-5-yl)azetidine-1-carboxamide] | 100 to 1000 nM | –
CC(C)(O)[C@H]1CC[C@H](NC(=O)N2CC(Oc3cc(C(N)=O)cc4scnc34)C2)CC1 [Example 330, 4-((1-(((trans)-4-(2-Hydroxypropan-2-yl)cyclohexyl)carbamoyl)azetidin-3-yl)oxy)benzo[d]thiazole-6-carboxamide] | 10 to 79.4 nM | –
Cc1nnc(NC(=O)[C@H]2C[C@H](Oc3cccc4scnc34)C2)s1 [Example 331, (trans)-3-(Benzo[d]thiazol-4-yloxy)-N-(5-methyl-1,3,4-thiadiazol-2-yl)cyclobutane-1-carboxamide] | 10 to 79.4 nM | –
CC(C)(C)c1nnc(NC(=O)N2CC(Oc3cccc4scnc34)C2)s1 [Example 332] | < 10 nM | –
O=C(Nc1nnc(C2CC2)s1)N1CC(Oc2cccc3scnc23)C1 [Example 333, 3-(Benzo[d]thiazol-4-yloxy)-N-(5-cyclopropyl-1,3,4-thiadiazol-2-yl)azetidine-1-carboxamide] | < 10 nM | –
CC(C)c1nnc(NC(=O)N2CC(Oc3cccc4scnc34)C2)s1 [Example 334, 3-(Benzo[d]thiazol-4-yloxy)-N-(5-isopropyl-1,3,4-thiadiazol-2-yl)azetidine-1-carboxamide] | 10 to 79.4 nM | –
CCOCc1nc(NC(=O)[C@H]2C[C@H](Oc3cc(F)cc4scnc34)C2)n[nH]1 [Example 335] | 10 to 79.4 nM | –
Cc1nc(NC(=O)N2CC(Oc3cccc4scnc34)C2)ns1 [Example 336, 3-(Benzo[d]thiazol-4-yloxy)-N-(5-methyl-1,2,4-thiadiazol-3-yl)azetidine-1-carboxamide] | 10 to 79.4 nM | –
CC(C)c1nsc(NC(=O)N2CC(Oc3cccc4scnc34)C2)n1 [Example 337, 3-(Benzo[d]thiazol-4-yloxy)-N-(3-isopropyl-1,2,4-thiadiazol-5-yl)azetidine-1-carboxamide] | < 10 nM | –
O=C(Nc1nc(C2CC2)ns1)N1CC(Oc2cccc3scnc23)C1 [Example 338, 3-(Benzo[d]thiazol-4-yloxy)-N-(3-cyclopropyl-1,2,4-thiadiazol-5-yl)azetidine-1-carboxamide] | < 10 nM | –
CC(C)(C)c1nsc(NC(=O)N2CC(Oc3cccc4scnc34)C2)n1 [Example 339] | 10 to 79.4 nM | –
